tested on: G. duodenalis BRIS/91/HEPU/1279; test: Primary Giardia screen at 10 µM (live-cell imaging, automated counting); type: cell-based, Giardia duodenalis; conditions: 24 h
How it was run: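 Percent growth versus 0.2% DMSO vehicle, background-corrected with media-only wells, is reported at 24 and 48 h from automated live-cell counts. Testing used 10 μM final in a 3% O2 atmosphere, with plate quality checked by Z' factor.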

Compared with `CCCNC(=O)N1CCN(c2nc3ccccc3n3cccc23)CC1` [SN00793136], `COc1ccc(Nc2cc(C)nc(N3CCN(C(=O)c4ccccc4)CC3)n2)cc1` [SN00793485] is higher in “Average % Inhibition 24h” value: 3.9% for the first, 5.5% for the second.

same assay, conditions: 24 h, first singlicate assay

Compared with `CCCNC(=O)N1CCN(c2nc3ccccc3n3cccc23)CC1` [SN00793136], `COc1ccc(Nc2cc(C)nc(N3CCN(C(=O)c4ccccc4)CC3)n2)cc1` [SN00793485] is higher in “% Inhibition n=1 24h” value: 7.8% for the first, 11.1% for the second.

same assay, conditions: 24 h, re-assessment

`CCCNC(=O)N1CCN(c2nc3ccccc3n3cccc23)CC1` [SN00793136] and `COc1ccc(Nc2cc(C)nc(N3CCN(C(=O)c4ccccc4)CC3)n2)cc1` [SN00793485] are the same in “% Inhibition n=2 24h” value: 0.0% for the first, 0.0% for the second.

same assay, conditions: 48 h

Going from `CCCNC(=O)N1CCN(c2nc3ccccc3n3cccc23)CC1` [SN00793136] to `COc1ccc(Nc2cc(C)nc(N3CCN(C(=O)c4ccccc4)CC3)n2)cc1` [SN00793485], the “Average % Inhibition 48h” value rises from 22.4% to 29.3%.

same assay, conditions: 48 h, first singlicate assay

First: COc1ccc(NC(=O)N2CCC3(CC2)Nc2cc(C)ccc2-n2cccc23)cc1 [SN00793004]
Second: COc1ccc(Nc2cc(C)nc(N3CCN(C(=O)c4ccccc4)CC3)n2)cc1 [SN00793485]
The “% Inhibition n=1 48h” value of the first is lower: 10.6% for the first, 58.6% for the second.

Going from `CCc1ccc(C2=Nc3ncnn3/C2=N/Cc2ccc(F)cc2)cc1` [SN00793051] to `CCc1nnc2sc(-c3ccc(CNC(=O)c4ccc(Br)o4)cc3)nn12` [SN00794046], the “% Inhibition n=1 48h” value rises from 1.3% to 48.2%.

Going from `CC(C)c1ccc(-c2noc(N3CCC(C(=O)N4CCN(C5CCCCC5)CC4)CC3)n2)cc1` [SN00793072] to `Cc1nc(-c2ccc(C(=O)N3CCCC3C(=O)Nc3ccc(C(C)C)cc3)cc2)no1` (stereo not drawn) [SN00793315], the “% Inhibition n=1 48h” value falls from 11.6% to 0.0%.

Going from `CCCNC(=O)N1CCN(c2nc3ccccc3n3cccc23)CC1` [SN00793136] to `Cc1cccc(NC(=O)N2CCN(c3nc(C)cc(N4CCN(C)CC4)n3)CC2)c1` [SN00793530], the “% Inhibition n=1 48h” value falls from 44.8% to 17.4%.

Compared with `Cc1c(C(=O)O)sc2ncnc(NC3CCCCCC3)c12` [SN00793181], `Cc1nc(N2CCCC2)c2c(C)c(C(=O)Nc3ccccc3Cl)sc2n1` [SN00793643] is higher in “% Inhibition n=1 48h” value: 3.6% for the first, 49.2% for the second.

Going from `Cc1sc2ncn(CC3CCCO3)c(=O)c2c1C(=O)Nc1ccc(S(N)(=O)=O)nc1` (stereo not drawn) [SN00793191] to `Cc1nc(-c2ccc(C(=O)N3CCCC3C(=O)Nc3ccc(C)c(Cl)c3)cc2)no1` (stereo not drawn) [SN00793320], the “% Inhibition n=1 48h” value rises from 0.0% to 16.2%.

First: COc1ccc(-c2cc3c(=O)n(Cc4cccc(F)c4)ccn3n2)cc1 [SN00793208]
Second: COc1cccc(CNC(=O)Cn2nc(C(=O)Nc3ccccc3)ccc2=O)c1 [SN00793567]
The “% Inhibition n=1 48h” value of the first is lower: 0.0% for the first, 4.7% for the second.

First: COc1cccc(Cn2c(CNC(=O)CCc3c(C)noc3C)nc3cccnc32)c1 [SN00793247]
Second: CC(C)CC(=O)NCc1nc2cccnc2n1Cc1ccc(F)cc1 [SN00793251]
The “% Inhibition n=1 48h” value of the first is higher: 17.5% for the first, 8.4% for the second.

First: Cc1cccc(Cn2c(CNS(=O)(=O)c3ccccc3)nc3cccnc32)c1 [SN00793267]
Second: Cc1nc(S(=O)(=O)c2ccc(Br)cc2)c(NCc2ccccc2)o1 [SN00793357]
The “% Inhibition n=1 48h” value of the first is lower: 9.9% for the first, 27.4% for the second.

First: CC(=O)N1CCCc2cc(S(=O)(=O)N3CCN(c4ccc(F)cc4)CC3)ccc21 [SN00793330]
Second: O=C(C1CCC1)N1CCCc2cc(S(=O)(=O)Nc3ccccc3)ccc21 [SN00793348]
The “% Inhibition n=1 48h” value of the first is higher: 0.2% for the first, 0.0% for the second.

Compared with `Cc1ccc(-c2nc3ncccn3c2NC(=O)c2ccc(C(F)(F)F)cc2)cc1` [SN00793355], `O=C(Nc1ccc(F)cc1)c1nc2nc(-c3cccs3)cc(C(F)(F)F)n2n1` [SN00794266] is higher in “% Inhibition n=1 48h” value: 13.4% for the first, 18.7% for the second.

Compared with `COc1ccc(C(C)(C)C)cc1S(=O)(=O)N1CCN(c2nc(C)cc(N3CCOCC3)n2)CC1` [SN00793559], `COc1ccc(-n2nnnc2C2(N3CCOCC3)CCCCC2)cc1` [SN00794159] is lower in “% Inhibition n=1 48h” value: 5.9% for the first, 0.0% for the second.

Going from `Cc1ccc(NC(=O)c2ccc(=O)n(CCN3CCOCC3)n2)cc1` [SN00793573] to `CCCNC1=C(C(=O)Nc2ccc(F)cc2)S(=O)(=O)c2ccccc21` [SN00794224], the “% Inhibition n=1 48h” value rises from 2.3% to 46.5%.

Compared with `O=C(NCc1ccc2c(c1)CCN2C(=O)c1ccccc1)C1CCN(S(=O)(=O)N2CCCC2)CC1` [SN00793589], `O=C(NCc1ccc2c(c1)CCN2C(=O)c1ccccc1)c1n[nH]c2c1CCc1ccccc1-2` [SN00793591] is lower in “% Inhibition n=1 48h” value: 7.9% for the first, 5.7% for the second.

Compared with `CC(C)OCCCNC(=O)Cn1c(=O)c(=O)n(Cc2ccncc2)c2ncccc21` [SN00793629], `Cc1cc(C)c2c(=O)n(CC(=O)Nc3ccc(Br)cc3)c(=O)n(C)c2n1` [SN00794110] is lower in “% Inhibition n=1 48h” value: 13.1% for the first, 0.0% for the second.

First: Cn1cnc2cc(-c3noc(C4CCCO4)n3)ccc21 (stereo not drawn) [SN00793699]
Second: CCc1cc(C2CCCN2C(=O)Cc2ccccc2F)on1 (stereo not drawn) [SN00793836]
The “% Inhibition n=1 48h” value of the first is higher: 22.8% for the first, 10.7% for the second.

Going from `CCc1cc(C2CCCN2C(=O)c2cnn3c(C(F)(F)F)cc(-c4cccs4)nc23)on1` (stereo not drawn) [SN00793821] to `O=C(c1nc2nc(-c3ccco3)cc(C(F)(F)F)n2n1)N1CCCCCC1` [SN00794256], the “% Inhibition n=1 48h” value rises from 1.7% to 19.8%.

Compared with `CCc1onc(C)c1C1CCCN1C(=O)c1ccc2c(c1)OCO2` (stereo not drawn) [SN00793852], `CCc1onc(C)c1C1CCCN1S(=O)(=O)c1ccc(CC(C)C)cc1` (stereo not drawn) [SN00793887] is higher in “% Inhibition n=1 48h” value: 6.6% for the first, 26.3% for the second.

Compared with `O=[N+]([O-])c1ccc(S(=O)(=O)N2CCCCCC2c2cccs2)cc1` (stereo not drawn) [SN00793856], `O=[N+]([O-])c1cccc(S(=O)(=O)N2CCCCCC2c2cccs2)c1` (stereo not drawn) [SN00793864] is lower in “% Inhibition n=1 48h” value: 39.9% for the first, 25.8% for the second.

Going from `CCCOc1ccc(CN2CCCC2c2c(C)noc2C)cc1` (stereo not drawn) [SN00793908] to `Cc1cc(C2CCCN2Cc2sccc2C)on1` (stereo not drawn) [SN00793909], the “% Inhibition n=1 48h” value falls from 16.7% to 2.5%.

Going from `CCOC(=O)c1ccc(Nc2c(-c3ccccc3)nc3[nH]cnn23)cc1` [SN00794007] to `O=C(c1ccc(F)cc1)N1CCCN(Cc2noc(-c3ccccc3)n2)CC1` [SN00794182], the “% Inhibition n=1 48h” value rises from 0.0% to 33.4%.

Going from `Cc1nnc2sc(-c3ccc(CNC(=O)c4cccc(Br)c4)cc3)nn12` [SN00794033] to `CCCn1nnc(NCc2ccc(OCc3ccccc3)cc2)n1` [SN00794214], the “% Inhibition n=1 48h” value falls from 41.7% to 16.1%.

Compared with `COC(=O)c1cn(CC(=O)NCc2cc3c(cc2C)OCCCO3)c2ccccc12` [SN00794141], `COc1ccccc1NC(=O)c1cn2c3c(cc(Br)cc3c1=O)CC2` [SN00794326] is lower in “% Inhibition n=1 48h” value: 14.4% for the first, 11.4% for the second.

Going from `CNC1(c2nnnn2-c2ccc(OC)cc2)CCCCC1` [SN00794158] to `CNc1nc(C(N)=O)c(NC(=O)c2ccc(OC)cc2)s1` [SN00794269], the “% Inhibition n=1 48h” value rises from 11.8% to 25.8%.

First: CSc1ccccc1NC(=O)C1CCN(S(C)(=O)=O)c2ccccc2O1 (stereo not drawn) [SN00794287]
Second: COC(=O)c1c(NC(=O)Cn2nc(C(F)(F)F)c(Br)c2C)sc2c1CCCC2 [SN00794352]
The “% Inhibition n=1 48h” value of the first is lower: 8.2% for the first, 23.2% for the second.

same assay, conditions: 48 h, re-assessment

`CCCNC(=O)N1CCN(c2nc3ccccc3n3cccc23)CC1` [SN00793136] and `COc1ccc(Nc2cc(C)nc(N3CCN(C(=O)c4ccccc4)CC3)n2)cc1` [SN00793485] are the same in “% Inhibition n=2 48h” value: 0.0% for the first, 0.0% for the second.

Source: publication PMC9775191, “A Subset Screen of the Compounds Australia Scaffold Library Identifies 7-Acylaminodibenzoxazepinones as Potent and Selective Hits for Anti-Giardia Drug Discovery” (Biomedicines, 2022)
